Data on 16 compounds can be found in US8178548B2, “Anti-infective agents and uses thereof” (priority 2007, dated 2012).

In assay [1] the test system is genotype 1b-Con1 subgenomic replicon cell line. As to the kind of experiment: HCV Polymerase Replicon Assay, genotype 1b-Con1 (luciferase reporter). It counts as cell-based. To be noted: read-out: EC50 1b.
Assay [2] deals with T1, HCV polymerase 1B (Δ21 NS5B, HCV Strain 1B BK) (Hepatitis C virus genotype 1b, UniProt P26663).
T1 construct: 20 to 50 nM Δ21 NS5B
T1 sequence (P26663 2420-2989, stated change not applied): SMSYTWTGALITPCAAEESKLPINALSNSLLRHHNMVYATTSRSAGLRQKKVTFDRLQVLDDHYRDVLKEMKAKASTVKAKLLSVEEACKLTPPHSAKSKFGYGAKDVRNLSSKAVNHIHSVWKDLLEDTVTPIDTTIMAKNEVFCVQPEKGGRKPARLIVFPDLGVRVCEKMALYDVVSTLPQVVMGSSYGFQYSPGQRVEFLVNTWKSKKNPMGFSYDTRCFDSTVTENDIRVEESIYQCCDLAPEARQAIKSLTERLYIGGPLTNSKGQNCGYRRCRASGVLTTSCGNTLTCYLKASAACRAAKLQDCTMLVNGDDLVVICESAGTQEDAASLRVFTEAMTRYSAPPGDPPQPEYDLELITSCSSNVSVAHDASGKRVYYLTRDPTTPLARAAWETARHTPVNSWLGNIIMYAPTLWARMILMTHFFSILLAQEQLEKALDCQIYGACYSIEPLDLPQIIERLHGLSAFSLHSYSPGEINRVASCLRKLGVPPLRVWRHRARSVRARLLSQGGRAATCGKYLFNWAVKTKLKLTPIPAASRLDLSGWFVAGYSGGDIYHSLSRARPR
As to the kind of experiment: biochemical. On the procedure: (§1) Either two-fold serial dilutions (fractional inhibition assay) or a narrower range of dilutions spanning the IC50 of the inhibitor (tight binding assay) of the inhibitors were incubated with 20 mM Tris-Cl pH 7.4, 2 mM MnCl2, 1 mM dithiothreitol, 1 mM ethylene diamine tetraacetic acid (EDTA), 60 to 125 μM GTP and 20 to 50 nM Δ21 NS5B (HCV Strain 1B (BK, Genbank accession number M58335, or H77, Genbank accession number AF011751)) for 15 min at room temperature. The reaction was initiated by the addition of 20 μM CTP, 20 μM ATP, 1 μM ^3H-UTP (10 mCi/umol), 5 nM template RNA and 0.1 U/μl RNase inhibitor (RNasin, Promega), and allowed to proceed for 2 to 4 h at room temperature. Reaction volume was 50 μl. The reaction was terminated by the addition of 1 volume of 4 mM spermine in 10 mM Tris-Cl pH 8.0, 1 mM EDTA. After incubation for at least 15 min at room temperature, the precipitated RNA was captured by filtering through a GF/B filter (Millipore) in a 96 well format. The filter plate was washed three times with 200 μl each of 2 mM spermine, 10 mM Tris-Cl pH 8.0, 1 mM EDTA, and 2 times with ethanol. After air-drying, 30 μl of Microscint 20 scintillation cocktail (Packard) was added to each well, and the retained cpm were determined by scintillation counting. […] Retained cpm were plotted vs. inhibitor concentration and fit to equation 1 using non-linear regression (ref. 1) to obtain the IC50 values: Retained cpm=A[sqrt{(IC50+It−Et)^2+4*IC50*Et}−(IC50+It−Et)]
(§2) Ref. Morrison, J. F. and S. R. Stone. 1985. Approaches to the study and analysis of the inhibition of enzymes by slow- and tight-binding inhibitors. Comments Mol. Cell. Biophys. 2: 347-368.
(§3) The sequence of the template RNA used was: 5′-[…] […] […] […] […] […] […] […] […] […] […] […] […] […] […] […] […]-3′ (SEQ ID NO:1).

In assay [3] the target is T2, HCV polymerase 1A (Δ21 NS5B, H77) (Hepatitis C virus genotype 1a, UniProt P27958).
T2 construct: 20 to 50 nM Δ21 NS5B
T2 sequence (P27958 2421-2990, stated change not applied): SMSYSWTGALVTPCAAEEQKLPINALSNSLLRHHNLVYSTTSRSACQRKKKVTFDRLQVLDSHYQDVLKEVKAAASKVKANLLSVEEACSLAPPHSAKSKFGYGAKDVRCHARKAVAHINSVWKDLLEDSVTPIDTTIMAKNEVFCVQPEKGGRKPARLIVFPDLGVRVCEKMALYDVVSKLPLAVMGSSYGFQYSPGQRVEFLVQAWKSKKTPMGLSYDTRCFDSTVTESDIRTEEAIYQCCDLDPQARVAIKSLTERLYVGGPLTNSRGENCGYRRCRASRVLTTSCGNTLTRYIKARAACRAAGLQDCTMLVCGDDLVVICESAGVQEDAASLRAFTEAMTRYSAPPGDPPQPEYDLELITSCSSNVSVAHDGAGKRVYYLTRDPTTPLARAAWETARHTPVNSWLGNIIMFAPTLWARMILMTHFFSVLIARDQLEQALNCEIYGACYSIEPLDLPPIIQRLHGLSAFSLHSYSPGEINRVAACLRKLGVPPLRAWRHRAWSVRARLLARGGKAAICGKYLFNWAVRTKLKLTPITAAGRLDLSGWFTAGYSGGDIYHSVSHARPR
As to the kind of experiment: biochemical. The procedure:
as §1, §2, §3

The test system of assay [4] is genotype 1a-H77 subgenomic replicon cell line. As to the kind of experiment: HCV Polymerase Replicon Assay, genotype 1a-H77 (luciferase reporter). Format: cell-based. To be noted: read-out: EC50 1a. (In antiviral work, replicon cells carry a viral genome segment that copies itself.)
Where [5] appears, read: Hepatitis C virus, 72 h, replicon 1b-Con1, luciferase, three days.
Where [6] appears, read: Hepatitis C virus, 72 h, replicon 1a-H77, luciferase, three days.

Read-outs that look alike come from different tables or passages of the source. A value given as a limit tells only on which side of the number the result lay.

The term EC50 denotes the concentration at which the effect is half-maximal. As usually defined, the IC50 is the concentration needed to halve the response being measured. In the case of `COc1c(/C=C/c2ccc(NS(C)(=O)=O)cc2)cc(-n2ccc(=O)[nH]c2=O)cc1-c1cccs1` [IB-L1-1.48, (E)-N-(4-(5-(2,4-dioxo-3,4-dihydropyrimidin-1(2H)-yl)-2-methoxy-3-(thiophen-2-yl)styryl)phenyl)methanesulfonamide], the EC50 was < 10 nM in assay [1] (setting [5]) and 100 to 1000 nM in assay [4] (setting [6]). The IC50 in assay [2] and in assay [3] was 10 to 100 nM each time.

As to `COCCNC(=O)c1cc(NS(C)(=O)=O)ccc1/C=C/c1cc(-n2ccc(=O)[nH]c2=O)cc(C(C)(C)C)c1OC` [IB-L1-1.9, 2-{(E)-2-[3-tert-Butyl-5-(2,4-dioxo-3,4-dihydro-2H-pyrimidin-1-yl)-2-methoxy-phenyl]-vinyl}-5-methanesulfonylamino-N-(2-methoxy-ethyl)-benzamide], the EC50 in assay [1] (Hepatitis C virus, 72 h) is < 10 nM; in assay [4] (Hepatitis C virus, 72 h), 10 to 100 nM. Moreover, the IC50 in assay [2] is 10 to 100 nM; in assay [3] it was < 10 nM.

For the compound `CC(C)(C)c1cc(CCc2ccc(NS(C)(=O)=O)cc2)cc(N2CCC(=O)NC2=O)c1` [IA-L5-2-1.2, N-(4-(3-tert-butyl-5-(2,4-dioxotetrahydropyrimidin-1(2H)-yl)phenethyl)phenyl)methane sulfonamide], the EC50 in assay [1] (setting [5]) and in assay [4] (setting [6]) was 100 to 1000 nM each time. Moreover, the half-inhibitory concentration (IC50) in assay [2] and in assay [3] was 10 to 100 nM throughout.

For `COc1c(Br)cc(-n2ccc(=O)[nH]c2=O)cc1/C=C/c1ccc(NS(C)(=O)=O)cc1` [IB-L1-1.52, (E)-N-(4-(3-bromo-5-(2,4-dioxo-3,4-dihydropyrimidin-1(2H)-yl)-2-methoxystyryl)phenyl)methanesulfonamide], the EC50 is 100 to 1000 nM in assay [1] (setting [5]) and > 1000 nM in assay [4] (setting [6]). The IC50 in assay [2] and in assay [3] was 100 to 1000 nM in each case.

For `COc1c(/C=C/c2ccc(NS(C)(=O)=O)cc2NC(=O)OC(C)(C)C)cc(-n2ccc(=O)[nH]c2=O)cc1C(C)(C)C` [IB-L1-1.32, (E)-tert-butyl 2-(3-tert-butyl-5-(2,4-dioxo-3,4-dihydropyrimidin-1(2H)-yl)-2-methoxystyryl)-5-(methylsulfonamido)phenylcarbamate], the EC50 in assay [1] (Hepatitis C virus, 72 h) lay within 10 to 100 nM; in assay [4] (Hepatitis C virus, 72 h), 100 to 1000 nM. Moreover, the IC50 in assay [2] and in assay [3] was 100 to 1000 nM throughout.

For `COc1c(/C=C/c2ccc(NS(C)(=O)=O)cc2C(=O)O)cc(-n2ccc(=O)[nH]c2=O)cc1C(C)(C)C` [IB-L1-1.4, (E)-2-(3-tert-butyl-5-(2,4-dioxo-3,4-dihydropyrimidin-1(2H)-yl)-2-methoxystyryl)-5-(methylsulfonamido)benzoic Acid], the EC50 is < 10 nM in assay [1] (Hepatitis C virus, 72 h) and 10 to 100 nM in assay [4] (Hepatitis C virus, 72 h). Besides, the 50% inhibitory concentration (IC50) in assay [2] and in assay [3] was < 10 nM in each case.

On to `COc1c(/C=C/c2ccc(NS(C)(=O)=O)c(F)c2)cc(-n2ccc(=O)[nH]c2=O)cc1C(C)(C)C` [IB-L1-1.5, (E)-N-(4-(3-tert-butyl-5-(2,4-dioxo-3,4-dihydropyrimidin-1(2H)-yl)-2-methoxystyryl)-2-fluorophenyl)methanesulfonamide], for which the concentration for a half-maximal effect (EC50) was < 10 nM in assay [1] (Hepatitis C virus, 72 h) and 10 to 100 nM in assay [4] (Hepatitis C virus, 72 h). Besides, the IC50 in assay [2] and in assay [3] was < 10 nM in each case.

Regarding `COc1cc(NS(C)(=O)=O)ccc1/C=C/c1cc(N2CCC(=O)NC2=O)cc(C(C)(C)C)c1OC` [IA-L1-1.27, N-(4-{(E)-2-[3-tert-Butyl-5-(dioxo-tetrahydro-pyrimidin-1-yl)-2-methoxy-phenyl]-vinyl}-3-methoxy-phenyl)-methanesulfonamide], the EC50 in assay [1] (replicon 1b-Con1, luciferase, three days) was < 10 nM; in assay [4] (replicon 1a-H77, luciferase, three days), 10 to 100 nM. In addition, the IC50 in assay [2] (HCV polymerase 1b, read-out: IC50 1b) is 10 to 100 nM; in assay [3] (HCV polymerase 1a, read-out: IC50 1a), < 10 nM.

Regarding `COc1c(/C=C(\F)c2ccc(NS(C)(=O)=O)cc2)cc(N2CCC(=O)NC2=O)cc1C(C)(C)C` [IA-L1-1.4, (Z)-N-(4-(2-(3-tert-butyl-5-(2,4-dioxotetrahydropyrimidin-1(2H)-yl)-2-methoxyphenyl)-1-fluorovinyl)phenyl)methanesulfonamide], the concentration for a half-maximal effect (EC50) in assay [1] (Hepatitis C virus, 72 h) is < 10 nM; in assay [4] (Hepatitis C virus, 72 h), < 10 nM. Besides, the IC50 in assay [2] and in assay [3] was < 10 nM in each case.

Regarding `COc1c(/C=C/c2ccc([N+](=O)[O-])cc2)cc(N2CCC(=O)NC2=O)cc1C(C)(C)C` [IA-L1-1.22, (E)-1-(3-tert-butyl-4-methoxy-5-(4-nitrostyryl)phenyl)dihydropyrimidine-2,4(1H,3H)-dione], the EC50 is 100 to 1000 nM in assay [1] (Hepatitis C virus, 72 h) and > 1000 nM in assay [4] (Hepatitis C virus, 72 h). Moreover, the half-maximal inhibitory concentration (IC50) in assay [2] and in assay [3] was 100 to 1000 nM each time.

For the compound `COc1c(/C=C/c2ccc(NS(C)(=O)=O)cc2)cc(-n2ccc(=O)[nH]c2=O)cc1S(C)(=O)=O` [IB-L1-1.49, (E)-N-(4-(5-(2,4-dioxo-3,4-dihydropyrimidin-1(2H)-yl)-2-methoxy-3-(methylsulfonyl)styryl)phenyl)methanesulfonamide], the EC50 in assay [1] (setting [5]) and in assay [4] (setting [6]) was > 1000 nM throughout. Besides, the values for the IC50 in assay [2] and in assay [3] were 100 to 1000 nM and 10 to 100 nM, respectively.

In the case of `COc1c(CCc2ccc(NS(C)(=O)=O)cc2)cc(-n2ccc(=O)[nH]c2=O)cc1C(C)(C)C` [IB-L5-2-1.2, N-(4-(3-tert-butyl-5-(2,4-dioxo-3,4-dihydropyrimidin-1(2H)-yl)-2-methoxyphenethyl)phenyl)methanesulfonamide], the EC50 fell in the range of 10 to 100 nM in assay [1] (setting [5]) and 100 to 1000 nM in assay [4] (setting [6]). Also, the IC50 in assay [2] and in assay [3] was 10 to 100 nM each time.

As for `COc1c(/C=C/c2ccc(NS(C)(=O)=O)cc2C(=O)N2CCCC2)cc(-n2ccc(=O)[nH]c2=O)cc1C(C)(C)C` [IB-L1-1.27, N-[4-{(E)-2-[3-tert-butyl-5-(2,4-dioxo-3,4-dihydro-2H-pyrimidin-1-yl)-2-methoxy-phenyl]-vinyl}-3-(pyrrolidine-1-carbonyl)-phenyl]-methanesulfonamide], the 50% effective concentration (EC50) in assay [1] (Hepatitis C virus, 72 h) was < 10 nM; in assay [4] (Hepatitis C virus, 72 h), 10 to 100 nM. Besides, the IC50 in assay [2] and in assay [3] was 10 to 100 nM throughout.

As to `COc1c(/C=C(\Cl)c2ccc([N+](=O)[O-])cc2)cc(N2CCC(=O)NC2=O)cc1C(C)(C)C` [IA-L1-1.23, 1-{3-tert-butyl-5-[(Z)-2-chloro-2-(4-nitro-phenyl)-vinyl]-4-methoxy-phenyl}-dihydropyrimidine-2,4-dione], the EC50 in assay [1] (Hepatitis C virus, 72 h) was > 1000 nM; in assay [4] (Hepatitis C virus, 72 h), > 1000 nM. Besides, the IC50 in assay [2] and in assay [3] was 100 to 1000 nM in each case.

In the case of `COc1c(/C=C/c2ccc(NS(C)(=O)=O)cc2CN2CC(O)C2)cc(-n2ccc(=O)[nH]c2=O)cc1C(C)(C)C` [IB-L1-1.29, N-[4-{(E)-2-[3-tert-butyl-5-(2,4-dioxo-3,4-dihydro-2H-pyrimidin-1-yl)-2-methoxy-phenyl]-vinyl}-3-(3-hydroxy-azetidin-1-ylmethyl)-phenyl]-methanesulfonamide], the EC50 lay in the range of 100 to 1000 nM in assay [1] (Hepatitis C virus, 72 h) and 100 to 1000 nM in assay [4] (Hepatitis C virus, 72 h). Moreover, the IC50 in assay [2] and in assay [3] was 10 to 100 nM in each case.

For `COc1c(/C=C/c2ccc(NS(C)(=O)=O)cc2)cc(-n2ccc(=O)[nH]c2=O)cc1C(C)(C)CO` [IB-L1-1.45, (E)-N-(4-(5-(2,4-dioxo-3,4-dihydropyrimidin-1(2H)-yl)-3-(1-hydroxy-2-methylpropan-2-yl)-2-methoxystyryl)phenyl)methanesulfonamide], the EC50 in assay [1] (setting [5]) is < 10 nM; in assay [4] (setting [6]) it was 10 to 100 nM. For the same compound, the IC50 in assay [2] was 10 to 100 nM; in assay [3] it was < 10 nM.
